Patent US9006265B2, “Substituted fused pyrimidinones and dihydropyrimidinones” (Bayer Intellectual Property GmbH, priority 2010, dated 2015)
One block for each molecule: values may come before it.

Tests used:
ZEAMX [1] = assay: Drought stress test on crop plants in greenhouse, spray application; assay type: in vivo, Zea mays; conditions: efficacy = percentage reduction in intensity of damage, mean of three results
Protocol: (§1) Seeds of monocotyledonous and dicotyledonous crop plants were laid out in sandy loam in wood-fiber pots, covered with soil and cultivated in a greenhouse under good growth conditions. The test plants were treated at the early leaf stage (BBCH10-BBCH13). To ensure uniform water supply before commencement of stress, the potted plants were supplied with the maximum amount of water immediately beforehand by dam irrigation and, after application, transferred in plastic inserts in order to prevent subsequent, excessively rapid drying. The inventive compounds, formulated in the form of wettable powders (WP), wettable granules (WG), suspension concentrates (SC) or emulsion concentrates (EC), were sprayed onto the green parts of the plants as an aqueous suspension at an equivalent water application rate of 600 l/ha with addition of 0.2% wetting agent (agrotin). Substance application is followed immediately by stress treatment of the plants (cold or drought stress). For cold stress treatment, the plants were kept under the following controlled conditions: • “day”: 12 hours with illumination at 8° C. • “night”: 12 hours without illumination at 1° C.
(§2) Drought stress was induced by gradual drying out under the following conditions: • “day”: 14 hours with illumination at 26° C. • “night”: 10 hours without illumination at 18° C.
(§3) The duration of the respective stress phases was guided mainly by the state of the untreated (=treated with blank formulation without test compound), stressed control plants and thus varied from crop to crop. It was ended (by re-irrigating or transfer to a greenhouse with good growth conditions) as soon as irreversible damage was observed on the untreated, stressed control plants. In the case of dicotyledonous crops, for example oilseed rape and soybeans, the duration of the drought stress phase varied between 3 and 5 days, in the case of monocotyledonous crops, for example wheat, barley or corn, between 6 and 10 days. The duration of the cold stress phase varied between 12 and 14 days.
(§4) The end of the stress phase was followed by an approx. 5-7-day recovery phase, during which the plants were once again kept under good growth conditions in a greenhouse. In order to rule out any influence of the effects observed by any fungicidal action of the test compounds, it was additionally ensured that the tests proceeded without fungal infection and without infection pressure.
(§5) After the recovery phase had ended, the intensities of damage were rated in visual comparison to untreated, unstressed controls of the same age (in the case of drought stress) or the same growth stage (in the case of cold stress). The intensity of damage was first assessed as a percentage (100%=plants have died, 0%=like control plants). These values were then used to calculate the efficacy of the test compounds (=percentage reduction in the intensity of damage as a result of substance application) by the following formula:
(§6) [formula] EF: efficacy (%) DVus: damage value of the untreated, stressed control DVts: damage value of the plants treated with test compound
(§7) The tables A-1 and B-1 to B-4 below list mean values in each case from three results of the same test.
(§8) Efficacies of selected compounds of the formula (I) under drought stress using the examples of HORVS, BRSNS, ZEAMX und TRZAS: […]

BRSNS = assay: as above; assay type: in vivo, Brassica napes; conditions: efficacy = percentage reduction in intensity of damage, mean of three results
Protocol: as §1, §2, §3, §4, §5, §6, §7, §8

ZEAMX [2] = assay: Cold stress test on crop plants in greenhouse, spray application; assay type: in vivo, Zea mays; conditions: efficacy = percentage reduction in intensity of damage, mean of three results
Protocol: Seeds of monocotyledonous and dicotyledonous crop plants were laid out in sandy loam in wood-fiber pots, covered with soil and cultivated in a greenhouse under good growth conditions. The test plants were treated at the early leaf stage (BBCH10-BBCH13). To ensure uniform water supply before commencement of stress, the potted plants were supplied with the maximum amount of water immediately beforehand by dam irrigation and, after application, transferred in plastic inserts in order to prevent subsequent, excessively rapid drying. The inventive compounds, formulated in the form of wettable powders (WP), wettable granules (WG), suspension concentrates (SC) or emulsion concentrates (EC), were sprayed onto the green parts of the plants as an aqueous suspension at an equivalent water application rate of 600 l/ha with addition of 0.2% wetting agent (agrotin). Substance application is followed immediately by stress treatment of the plants (cold or drought stress). For cold stress treatment, the plants were kept under the following controlled conditions: • “day”: 12 hours with illumination at 8° C. • “night”: 12 hours without illumination at 1° C. The duration of the respective stress phases was guided mainly by the state of the untreated (=treated with blank formulation without test compound), stressed control plants and thus varied from crop to crop. It was ended (by re-irrigating or transfer to a greenhouse with good growth conditions) as soon as irreversible damage was observed on the untreated, stressed control plants. In the case of dicotyledonous crops, for example oilseed rape and soybeans, the duration of the drought stress phase varied between 3 and 5 days, in the case of monocotyledonous crops, for example wheat, barley or corn, between 6 and 10 days. The duration of the cold stress phase varied between 12 and 14 days. The end of the stress phase was followed by an approx. 5-7-day recovery phase, during which the plants were once again kept under good growth conditions in a greenhouse. In order to rule out any influence of the effects observed by any fungicidal action of the test compounds, it was additionally ensured that the tests proceeded without fungal infection and without infection pressure. After the recovery phase had ended, the intensities of damage were rated in visual comparison to untreated, unstressed controls of the same age (in the case of drought stress) or the same growth stage (in the case of cold stress). The intensity of damage was first assessed as a percentage (100%=plants have died, 0%=like control plants). These values were then used to calculate the efficacy of the test compounds (=percentage reduction in the intensity of damage as a result of substance application) by the following formula: [formula] EF: efficacy (%) DVus: damage value of the untreated, stressed control DVts: damage value of the plants treated with test compound The tables A-1 and B-1 to B-4 below list mean values in each case from three results of the same test. Efficacies of selected compounds of the formula (I) under cold stress using the example of ZEAMX: […]

TRZAS = assay: Drought stress test on crop plants in greenhouse, spray application; assay type: in vivo, Triticum aestivum; conditions: efficacy = percentage reduction in intensity of damage, mean of three results
Protocol: as §1, §2, §3, §4, §5, §6, §7, §8

SMILES: O=c1[nH]c2c(-c3ccc(Cl)cc3)c(C(F)(F)F)nn2c2ccccc12 [I.3-17, 3-(4-Chlorophenyl)-2-(trifluoromethyl)pyrazolo[1,5-a]quinazolin-5(4H)-one]
EF (ZEAMX) (ZEAMX [1]; dosage 250 g/ha): >5%
EF (BRSNS) (BRSNS; dosage 250 g/ha): >5%

SMILES: NC(=O)c1cnn2c1[nH]c(=O)c1ccccc12 [I.3-31]
EF (ZEAMX) (ZEAMX [1]; dosage 250 g/ha): >5%
EF (ZEAMX) (ZEAMX [2]; dosage 250 g/ha): >5%
EF (TRZAS) (TRZAS; dosage 25 g/ha): >5%
EF (BRSNS) (BRSNS; dosage 25 g/ha): >5%

SMILES: CCOC(=O)c1c(C#N)nn2c1[nH]c(=O)c1ccccc12 [I.3-32]
EF (ZEAMX) (ZEAMX [1]; dosage 250 g/ha): >5%

SMILES: COc1cccc2c1NC(CCc1ccccc1)NC2=O (stereo not drawn) [I.4-16]
EF (BRSNS) (BRSNS; dosage 250 g/ha): >5%

SMILES: Cc1cccc2c1NC(c1ccc(C(F)(F)F)cc1)NC2=O (stereo not drawn) [I.4-21]
EF (ZEAMX) (ZEAMX [1]; dosage 1000 g/ha): >5%

SMILES: O=C1NC(c2ccoc2)Nc2ccccc21 (stereo not drawn) [I.4-51]
EF (ZEAMX) (ZEAMX [2]; dosage 250 g/ha): >5%

SMILES: CN1c2ccccc2C(=O)NC1c1cnn(C)c1 (stereo not drawn) [I.4-63]
EF (ZEAMX) (ZEAMX [2]; dosage 50 g/ha): >5%

melting point: 190 °C
SMILES: O=C1NC(c2ccc(Cl)cc2)Nc2ccccc21 (stereo not drawn) [I.4-71, 2-(4-Chlorophenyl)-2,3-dihydroquinazolin-4(1H)-one]

SMILES: COc1cccc2c1NC(/C=C/c1ccccc1)NC2=O (stereo not drawn) [I.4-75, 2R,S-8-methoxy-2-[(E)-2-phenylethenyl]-2,3-dihydroquinazolin-4(1H)-one]
EF (TRZAS) (TRZAS; dosage 250 g/ha): >5%
EF (BRSNS) (BRSNS; dosage 250 g/ha): >5%

SMILES: Cc1cccc2c1NC(c1ccoc1)NC2=O (stereo not drawn) [I.4-84]
EF (ZEAMX) (ZEAMX [1]; dosage 250 g/ha): >5%

SMILES: CN1c2ccccc2C(=O)NC1c1ccoc1 (stereo not drawn) [I.4-85]
EF (ZEAMX) (ZEAMX [1]; dosage 250 g/ha): >5%

SMILES: COc1cc(/C=C/C2NC(=O)c3ccccc3N2C)cc(OC)c1O (stereo not drawn) [I.4-90]
EF (BRSNS) (BRSNS; dosage 250 g/ha): >5%

SMILES: CCn1ccc(C2NC(=O)c3cccc(OC)c3N2)n1 (stereo not drawn) [I.4-97]
EF (ZEAMX) (ZEAMX [1]; dosage 250 g/ha): >5%
EF (TRZAS) (TRZAS; dosage 250 g/ha): >5%

SMILES: CCn1nccc1C1NC(=O)c2cccc(C)c2N1 (stereo not drawn) [I.4-115]
EF (TRZAS) (TRZAS; dosage 250 g/ha): >5%
EF (BRSNS) (BRSNS; dosage 250 g/ha): >5%

SMILES: O=C1NC(c2ccc(Cl)cc2)Nc2cccc(F)c21 (stereo not drawn) [I.4-165]
EF (ZEAMX) (ZEAMX [1]; dosage 250 g/ha): >5%

SMILES: O=C1NC(c2ccc(F)cc2F)Nc2c(Cl)cccc21 (stereo not drawn) [I.4-175]
EF (ZEAMX) (ZEAMX [1]; dosage 250 g/ha): >5%

SMILES: O=C1NC(c2ccsc2)Nc2cccc(F)c21 (stereo not drawn) [I.4-177]
EF (ZEAMX) (ZEAMX [1]; dosage 250 g/ha): >5%

SMILES: Cc1cccc2c1C(=O)NC(c1ccsc1)N2 (stereo not drawn) [I.4-180]
EF (ZEAMX) (ZEAMX [1]; dosage 250 g/ha): >5%

SMILES: O=C1NC(c2ccsc2)Nc2c(Cl)cccc21 (stereo not drawn) [I.4-181]
EF (ZEAMX) (ZEAMX [1]; dosage 250 g/ha): >5%
EF (BRSNS) (BRSNS; dosage 250 g/ha): >5%

SMILES: O=C1NC(CCc2ccccc2)Nc2cccc(F)c21 (stereo not drawn) [I.4-184]
EF (ZEAMX) (ZEAMX [2]; dosage 250 g/ha): >5%

SMILES: Cc1ccc(C2NC(=O)c3c(C)cccc3N2)cc1 (stereo not drawn) [I.4-193]
EF (TRZAS) (TRZAS; dosage 250 g/ha): >5%

SMILES: O=C1NC(c2ccc(Br)cc2F)Nc2cccc(F)c21 (stereo not drawn) [I.4-227]
EF (TRZAS) (TRZAS; dosage 250 g/ha): >5%

SMILES: O=C1NC(c2ccoc2)Nc2cccc(Cl)c21 (stereo not drawn) [I.4-232]
EF (TRZAS) (TRZAS; dosage 250 g/ha): >5%
EF (BRSNS) (BRSNS; dosage 250 g/ha): >5%

SMILES: Cc1ccc(C2NC(=O)c3cccc(Cl)c3N2)c(Cl)c1 (stereo not drawn) [I.4-295]
EF (ZEAMX) (ZEAMX [1]; dosage 250 g/ha): >5%

SMILES: CCN(CC)CCN1C(=O)c2cccc(OC)c2NC1c1ccc(C(F)(F)F)cc1Cl (stereo not drawn) [I.4-324]
EF (ZEAMX) (ZEAMX [1]; dosage 250 g/ha): >5%

SMILES: CCN(CC)CCN1C(=O)c2cccc(OC)c2NC1c1ccnn1C (stereo not drawn) [I.4-330]
EF (ZEAMX) (ZEAMX [1]; dosage 250 g/ha): >5%
EF (TRZAS) (TRZAS; dosage 250 g/ha): >5%
